Assay results as given in US4663309A, “Novel peptide hormones with calcitonin-like activity” (University Patents, Inc., priority 1985, dated 1987).
Entries after “also recorded” stand apart in the source; their conditions may differ. Bridge positions count the residues as written; N and C are the ends. Peptide text beside a SMILES is read from it.

Assays:
[1] = system: male Sprague-Dawley rats; assay: In vivo hypocalcemic rat bioassay (Example 6)
[2] = Binding to single bilayer egg lecithin vesicles; format: physicochemical; conditions: for Adsorption to the surface of single bilayer egg lecithin vesicles: 1 to 100 μM peptide, SCT-I at pH 7.4 or pH 3.0; for N, upper limit of bound peptide per vesicle / Kd: 7×10^-4 M lecithin; for N, upper limit of bound peptide per vesicle: pH 7.4; for Kd: pH 7.4, 45 min at 21° C., read-out: K, dissociation constant for vesicle binding; for A∞·N product: A∞ from the monolayer studies in Example 7
Protocol: Egg lecithin single bilayer vesicles (SBVs) were prepared by rapid injection of an ethanolic egg yolk lecithin (Avanti Polar-Lipids Inc., Birmingham, AL) solution into aqueous 0.16M KCl by the method of Batzri, S. and E. D. Korn, Biochim. Biophys. Acta 298:1015(1973) and purified by filtration through a 2.5 cm×87 cm column of Fractogel TSK HW-75(F)™ (Pierce Chemical Co., Rockford, IL). After purification, vesicles were characterized by gel filtration through a 1.5 cm×40 cm column of Sepharose CL-4B™ (Pharmacia Fine Chemicals) by the method of Batzri and Korn, supra. The concentration of vesicles in stock solutions were determined by the phosphate assay of Ames, B. N. and D. T. Dubin, J. Biol. Chem. 235:769(1960). In a typical binding experiment, varying concentrations of peptide were incubated for 45 min at 21° C. with vesicles (7×10^-4 M lecithin) in 0.02M sodium phosphate buffer, pH 7.4 containing 0.16M KCl in a total volume of 300 μl for 45 min. Free peptide was separated from vesicle-bound peptide by rapid filtration through a 1.4 cm×6.3 cm column of Sepharose CL-6B™ (Pharmacia Fine Chemicals) using the same buffer as above the eluent. The concentration of peptide in each fraction was determined using fluorescamine after first disrupting the vesicles with isopropanol (20% by volume).
The data for MCT-I and MCT-II were analyzed according to the equation Pf =(N·V·Pf /Pb)-K (Adamson, A. W., Physical Chemistry of Surfaces, 3rd Ed. (Wiley Interscience, New York, 1976), p. 388), where Pf and Pb are the concentration of free and bound peptide respectively, V is the initial molarity of vesicles (3200 phospholipids per vesicle), N is the upper limit of Pf /V, and K is the dissociation constant. Plots of V·Pf /Pb versus Pf were linear and gave K=12.9±4.8 μM with N=50±5 for MCT-I and K=6.7±1.7 μM, N= 68±2 for MCT-II. The product, A.infin. ·N, where A.infin. was obtained from the monolayer studies in Example 7, are nearly the same (A.infin. ·N(MCT-I) =2.2±0.2×10^4 Å^2, A.infin. ·N(MCT-II) =2.5±0.1×10^4 Å^2), accounting for the difference in observed values of N. A.infin. ·N is also in reasonable agreement with estimates of the available surface area between the phospholipid head groups of 230 Å diameter vesicles (1.8±0.6×10^4 Å^2; Kupferberg, J. P., S. Yokoyama, and F. J. Kezdy, J. Biol. Chem. 256:6274(1981)).

[3] = system: rat kidney adenylate cyclase; assay: Peptide stimulation of adenylate cyclase activity in crude kidney cortical membranes; format: biochemical; conditions: 10 min at 37° C.
Protocol: Crude rats brain membranes were prepared as described by Nakamuta et al., supra, using 250-300 gm male Sprague-Dawley rats (Charles River Breeding Laboratories). Membranes were either used immediately or stored at -80° C. for no more than three days. Crude rat kidney membranes used for binding studies and adenylate cyclase assays were prepared as described by Schwartz, K. E., R. C. Orlowski and R. Marcus, Endocrinology 108:831 (1981) with a minor modification. The dissected kidney cortices were first homogenized briefly with a Polytron™ (Brinkman Instruments) at low speed ("5") before complete homogenization with a loose-fitting Wheaton Dounce homogenizer (American Scientific Products, MacGaw Park, IL, pestle "B"). Protein concentrations were determined using Coomassie Brilliant Blue G-250 (Sedmak, J. J. and S. E. Grossberg, Anal. Biochem. 83:544 (1977)) and crystallized BSA (Sigma Chemical Co., St. Louis, MO) as the standard. All preparations of kidney membranes were carried out at 4° C. and the membranes were used immediately for binding studies or adenylate cyclase assays.
Peptide stimulation of adenylate cyclase activity in crude kidney cortical membranes was measured using methods described by Marcus, R. and G. D. Aurbach, Biochim. Biophys. Acta 242:410 (1971). […]

[4] = target: T1, brain receptors (calcitonin receptors, crude rat brain membranes) (Rattus norvegicus, UniProt P32214); conditions: tubes pretreated with peptide, 30 min at 4° C.
T1 sequence (P32214 25-516): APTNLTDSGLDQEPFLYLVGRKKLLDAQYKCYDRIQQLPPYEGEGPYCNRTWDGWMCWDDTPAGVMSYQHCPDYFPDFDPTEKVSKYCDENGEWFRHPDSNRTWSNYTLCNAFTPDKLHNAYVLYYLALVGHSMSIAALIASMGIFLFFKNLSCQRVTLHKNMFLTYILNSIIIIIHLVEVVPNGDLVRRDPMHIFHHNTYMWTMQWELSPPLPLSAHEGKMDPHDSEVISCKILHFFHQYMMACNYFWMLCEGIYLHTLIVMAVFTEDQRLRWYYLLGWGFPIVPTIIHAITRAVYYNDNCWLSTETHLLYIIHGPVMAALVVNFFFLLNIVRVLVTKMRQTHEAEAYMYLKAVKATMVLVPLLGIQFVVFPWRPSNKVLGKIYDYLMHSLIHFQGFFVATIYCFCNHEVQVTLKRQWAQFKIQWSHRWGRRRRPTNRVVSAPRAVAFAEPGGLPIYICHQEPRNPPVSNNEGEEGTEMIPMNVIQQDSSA

Adsorption to the surface of single bilayer egg lecithin vesicles [2] | N, upper limit of bound peptide per vesicle [2] | Kd [2] [µM] | A∞·N product [2] | IC50 for brain receptors, calculated from theoretical curves fitted to the data [4] [µM] | SMILES | Activity relative to PCT ([1]; hypocalcemic response in rats, b98 covers in vitro and in vivo activity) | In vivo potency relative to SCT-I (fold less potent) ([1]; subcutaneous, plasma calcium 1 hour after injection) | Stimulation of adenylate cyclase over basal activity [3]
adsorb to the surface | 50±5 | 12.9 ± 4.8 | 2.2±0.2×10^4 Å^2 |  | CC(C)C[C@@H]1NC(=O)[C@H](CC(N)=O)NC(=O)CNC(=O)[C@@H](N)CSSC[C@@H](C(=O)N[C@@H](CC(C)C)C(=O)N[C@@H](CC(C)C)C(=O)N[C@@H](CCC(N)=O)C(=O)N[C@@H](CCC(N)=O)C(=O)N[C@@H](Cc2c[nH]c3ccccc23)C(=O)N[C@@H](CCC(N)=O)C(=O)N[C@@H](CCCCN)C(=O)N[C@@H](CC(C)C)C(=O)N[C@@H](CC(C)C)C(=O)N[C@@H](CCC(N)=O)C(=O)N[C@@H](CCCCN)C(=O)N[C@@H](CC(C)C)C(=O)N[C@@H](CCCCN)C(=O)N[C@@H](CCC(N)=O)C(=O)N[C@@H](CC(C)C)C(=O)N2CCC[C@H]2C(=O)N[C@@H](CCCNC(=N)N)C(=O)N[C@H](C(=O)N[C@@H](CC(N)=O)C(=O)N[C@H](C(=O)NCC(=O)N[C@@H](CO)C(=O)NCC(=O)N[C@H](C(=O)N2CCC[C@H]2C(N)=O)[C@@H](C)O)[C@@H](C)O)[C@@H](C)O)NC(=O)[C@H]([C@@H](C)O)NC(=O)[C@H](CO)NC1=O [MCT-I] (H-CGNLSTCLLQQWQKLLQKLKQLPRTNTGSGTP-NH2; disulfide 1-7) | approximately as active as PCT; also recorded: equivalent to that of PCT | about 10 fold | 
adsorb to the surface | 68±2 | 6.7 ± 1.7 | 2.5±0.1×10^4 Å^2 | 0.0006 | CC(C)C[C@H](NC(=O)[C@H](CCCCN)NC(=O)[C@H](CCC(N)=O)NC(=O)[C@H](CC(C)C)NC(=O)[C@H](CCC(N)=O)NC(=O)[C@H](CCC(N)=O)NC(=O)[C@H](CC(C)C)NC(=O)[C@H](CC(C)C)NC(=O)[C@@H]1CSSC[C@H](N)C(=O)N[C@@H](CO)C(=O)N[C@@H](CC(N)=O)C(=O)N[C@@H](CC(C)C)C(=O)N[C@@H](CO)C(=O)N[C@@H]([C@@H](C)O)C(=O)N1)C(=O)N[C@@H](CC(C)C)C(=O)N[C@@H](CCC(N)=O)C(=O)N[C@@H](CCCCN)C(=O)N[C@@H](CC(C)C)C(=O)N[C@@H](CCCCN)C(=O)N[C@@H](CCC(N)=O)C(=O)N[C@@H](Cc1ccc(O)cc1)C(=O)N1CCC[C@H]1C(=O)N[C@@H](CCCNC(=N)N)C(=O)N[C@H](C(=O)N[C@@H](CC(N)=O)C(=O)N[C@H](C(=O)NCC(=O)N[C@@H](CO)C(=O)NCC(=O)N[C@H](C(=O)N1CCC[C@H]1C(N)=O)[C@@H](C)O)[C@@H](C)O)[C@@H](C)O [MCT-II] (H-CSNLSTCLLQQLQKLLQKLKQYPRTNTGSGTP-NH2; disulfide 1-7; N-terminus assumed) |  |  | stimulated adenylate cyclase over basal activity
